Assay results taken from patent publication US9693997B2, “Antiviral compounds” (priority 2013, dated 2017).

Tests used:
Test in all cases: microbe, parasite or virus in culture
[1] = tested on: Pseudotyped HCV GT1b particles (HCVpp), entry into Huh7-high CD81 cells; type: cell-based, HCV GT1b Con1 strain; settings: Hepatitis C virus, GT1B, 72 h, read-out: HCVpp GT-1b (EC50, μM)
[2] = tested on: Pseudotyped HCV GT1a particles (HCVpp), entry into Huh7-high CD81 cells; type: cell-based, HCV GT1a H77 strain; settings: Hepatitis C virus, 72 h, read-out: HCVpp GT-1a (EC50, μM)
[3] = tested on: pseudotyped VSV G particles (VSVpp) in Huh7-high CD81 cells; type: cell-based, vesicular stomatitis virus; settings: Vesicular stomatitis virus, 72 h, read-out: VSVpp (EC50, μM)

Compound	EC50 [1]	EC50 [2]	EC50 [3]
CS(=O)(=O)c1ccc(-c2c(Cl)cc(Nc3n[nH]c(N)n3)cc2Cl)cc1 [Compound 94, N3-(2,6-Dichloro-4′-(methylsulfonyl)biphenyl-4-yl)-1H-1,2,4-triazole-3,5-diamine]	0.174 µM	0.007 µM	2 µM
Nc1nc(Nc2cc(Cl)c(-c3ccccc3)c(Cl)c2)n[nH]1 [Compound 48, N*3*-(2,6-Dichloro-biphenyl-4-yl)-1H-[1,2,4]triazole-3,5-diamine]	0.533 µM	0.01 µM	30.5 µM
Nc1nc(Nc2ccc(-c3ccccc3)c(Cl)c2)n[nH]1 [Compound 144, N*3*-(2-Chloro-biphenyl-4-yl)-1H-[1,2,4]triazole-3,5-diamine]	2.92 µM	0.333 µM	34.8 µM
CC(=O)c1ccc(-c2c(Cl)cc(Nc3n[nH]c(N)n3)cc2Cl)cc1 [Compound 107, 1-[4′-(5-Amino-1H-[1,2,4]triazol-3-ylamino)-2′,6′-dichloro-biphenyl-4-yl]-ethanone]	0.228 µM	0.008 µM	11.1 µM
CS(=O)(=O)NCc1ccc(-c2c(Cl)cc(Nc3n[nH]c(N)n3)cc2C(F)(F)F)cc1 [Compound 186, N-((4′-(5-amino-1H-1,2,4-triazol-3-ylamino)-2′-chloro-6′-(trifluoromethyl)biphenyl-4-yl)methyl)methanesulfonamide]	0.038 µM	0.011 µM	19.7 µM
Nc1nc(Nc2ccc(-c3ccc(F)cc3)c(Cl)c2)n[nH]1 [Compound 145, N*3*-(2-Chloro-4′-fluoro-biphenyl-4-yl)-1H-[1,2,4]triazole-3,5-diamine]	6.02 µM	0.532 µM	39.1 µM
Nc1nc(Nc2cc(Cl)c(-c3ccc4c(c3)CC(=O)N4)c(Cl)c2)n[nH]1 [Compound 254]	0.051 µM	0.003 µM	12.9 µM
Nc1nc(Nc2ccc(-c3cccc(F)c3)c(Cl)c2)n[nH]1 [Compound 148, N*3*-(2-Chloro-3′-fluoro-biphenyl-4-yl)-1H-[1,2,4]triazole-3,5-diamine]	3.34 µM	0.301 µM	33.8 µM
Nc1nc(Nc2cc(Cl)c(-c3ccc(N4CCCS4(=O)=O)cc3)c(Cl)c2)n[nH]1 [Compound 289, N-3-[2,6-Dichloro-4′-(1,1-dioxo-1,6-isothiazolidin-2-yl)-biphenyl-4-yl]-1H-[1,2,4]triazole-3,5-diamine]	0.046 µM	0.002 µM	17.8 µM
Nc1nc(Nc2cc(Cl)c(-c3cccc(C(=O)O)c3)c(Cl)c2)n[nH]1 [Compound 106, 4′-(5-Amino-1H-[1,2,4]triazol-3-ylamino)-2′,6′-dichloro-biphenyl-3-carboxylic acid]	23.4 µM	1.17 µM	100 µM
CS(=O)(=O)NCc1ccc(-c2c(Cl)cc(Nc3n[nH]c(N)n3)cc2Cl)cc1 [Compound 12, N-[4′-(5-Amino-1H-[1,2,4]triazol-3-ylamino)-2′,6′-dichloro-biphenyl-4-ylmethyl]-methanesulfonamide]	0.035 µM	0.003 µM	18.3 µM
CS(=O)(=O)c1cccc(-c2c(F)cc(Nc3nc(N)n[nH]3)cc2C(F)(F)F)c1 [Compound 74, N^5-(2-Fluoro-3′-(methylsulfonyl)-6-trifluoromethylbiphenyl-4-yl)-1H-[1,2,4]-triazole-3,5-diamine]	0.169 µM	0.055 µM	16.9 µM
Nc1nc(Nc2ccc(-c3ccccc3)cc2)n[nH]1 [Compound 55, N*3*-Biphenyl-4-yl-1H-[1,2,4]triazole-3,5-diamine]	100 µM	25.1 µM	100 µM
CN(C)C(=O)c1cccc(-c2c(Cl)cc(Nc3n[nH]c(N)n3)cc2Cl)c1 [Compound 115, 4′-(5-Amino-1H-[1,2,4]triazol-3-ylamino)-2′,6′-dichloro-biphenyl-3-carboxylic acid dimethylamide]	0.107 µM	0.007 µM	34.8 µM
Cc1ccc(-c2c(Cl)cc(Nc3n[nH]c(N)n3)cc2Cl)cc1 [Compound 97, N-3-(2,6-Dichloro-4′-methyl-biphenyl-4-yl)-1H-[1,2,4]triazole-3,5-diamine]	0.704 µM	0.007 µM	9.33 µM
CS(=O)(=O)Nc1cccc(-c2c(Cl)cc(Nc3n[nH]c(N)n3)cc2Cl)c1 [Compound 112, N-[4′-(5-Amino-1H-[1,2,4]triazol-3-ylamino)-2′,6′-dichloro-biphenyl-3-yl]-methanesulfonamide]	0.048 µM	0.006 µM	15.3 µM
Nc1nc(Nc2cc(Cl)c(-c3ccc(Cl)c(Cl)c3)c(Cl)c2)n[nH]1 [Compound 102, N-3-(2,6,3′,4′-Tetrachloro-biphenyl-4-yl)-1H-[1,2,4]triazole-3,5-diamine]	0.931 µM	0.062 µM	6.33 µM
Nc1nc(Nc2cc(Cl)c(-c3ccc(C(F)(F)F)cc3)c(Cl)c2)n[nH]1 [Compound 99, N-3-(2,6-Dichloro-4′-trifluoromethyl-biphenyl-4-yl)-1H-[1,2,4]triazole-3,5-diamine]	1.57 µM	0.056 µM	20.6 µM
N#Cc1cc(-c2c(Cl)cc(Nc3n[nH]c(N)n3)cc2Cl)ccc1Cl [Compound 105, 4′-(5-Amino-1H-[1,2,4]triazol-3-ylamino)-4,2′,6′-trichloro-biphenyl-3-carbonitrile]	0.472 µM	0.039 µM	16.8 µM
CS(=O)(=O)Nc1ccc(-c2c(Cl)cc(Nc3n[nH]c(N)n3)cc2Cl)cc1 [Compound 111, N-[4′-(5-Amino-1H-[1,2,4]triazol-3-ylamino)-2′,6′-dichloro-biphenyl-4-yl]-methanesulfonamide]	0.039 µM	0.003 µM	7.53 µM
Nc1nc(Nc2cc(Cl)c(-c3ccc(NC(=O)CN4CCS(=O)(=O)CC4)cc3)c(C(F)(F)F)c2)n[nH]1 [Compound 240]	0.171 µM	0.011 µM	> 10 µM
Nc1nc(Nc2cc(Cl)c(-c3ccc(NC(=O)CCCC[C@@H]4SC[C@@H]5NC(=O)N[C@@H]54)cc3)c(Cl)c2)n[nH]1 [Compound 39, 5-((3aS,4S,6aR)-2-Oxo-hexaneahydro-thieno[3,4-d]imidazol-4-yl)-pentanoic acid [4′-(5-amino-1H-[1,2,4]triazol-3-ylamino)-2′,6′-dichloro-biphenyl-4-yl]-amide]	0.09 µM	0.002 µM	> 10 µM
CNC(=O)c1cccc(-c2c(Cl)cc(Nc3n[nH]c(N)n3)cc2Cl)c1 [Compound 117, 4′-(5-Amino-1H-[1,2,4]triazol-3-ylamino)-2′,6′-dichloro-biphenyl-3-carboxylic acid methylamide]	0.218 µM	0.011 µM	26.1 µM
CN(C)S(=O)(=O)c1ccc(-c2c(Cl)cc(Nc3n[nH]c(N)n3)cc2Cl)cc1 [Compound 123, 4′-(5-Amino-1H-[1,2,4]triazol-3-ylamino)-2′,6′-dichloro-biphenyl-4-sulfonic acid dimethylamide]	0.042 µM	0.002 µM	11 µM
N#CCCCOc1ccc(-c2c(Cl)cc(Nc3n[nH]c(N)n3)cc2Cl)cc1 [Compound 26, 4-[4′-(5-Amino-1H-[1,2,4]triazol-3-ylamino)-2′,6′-dichloro-biphenyl-4-yloxy]-butyronitrile]	0.116 µM	0.008 µM	3.79 µM
